Earlier results as cited in patent publication US20200246411A1, “ANTI-DIARRHOEAL HERBAL COMPOSITIONS” (SRH NUTRITION LLP, priority 2017, published 2020).

Conditions: conventional drug use

Row | SMILES | disadvantages / adverse reactions
1 | CC(=O)SCC(Cc1ccccc1)C(=O)NCC(=O)OCc1ccccc1 (centres unmarked) [Racecadotril] | Cause some adverse reactions such as hypokalemia, bronchospasm,
2 | COc1ccc2c3c1O[C@H]1[C@@H](O)C=C[C@H]4[C@@H](C2)N(C)CC[C@@]341 [Codeine] | Produces secondary effects such as nausea, dizziness and acts against
3 | CCOC(=O)C1(c2ccccc2)CCN(CCC(C#N)(c2ccccc2)c2ccccc2)CC1 [Diphenoxylate] | Therapeutic doses induce adverse reactions in the CNS (confusion,
4 | CN(C)C(=O)C(CCN1CCC(O)(c2ccc(Cl)cc2)CC1)(c1ccccc1)c1ccccc1 [Loperamide] | Frequent adverse reactions induced are hypersensibility reactions
5 | [Bi] [Bismuth] | Causes adverse reactions (dizziness, cephalea, constipation, dark stools,
